This is an account of results in patent US20080081075A1, “Multifunctional mixed micelle of graft and block copolymers and preparation thereof” (National Tsing Hua University, priority 2006, published 2008).

For experiment [1], the system named is HeLa cells. The experiment can be described thus: Cytotoxicity evaluation, MTT assay. The note with it: 48 h. It counts as cell-based. Background: Formazan colour is commonly taken as a measure of viable cells.
Method: The cytotoxicity of each sample was determined by measuring the inhibition of cell growth using a tetrazolium dye (MTT) assay. […] HeLa cells (5×10^3 cell/mL) harvested in a logarithmic growth phase were seeded on 96 wells in Dulbecco's modified Eagle's medium (DMEM) with 10% fetal bovine serum (FBS) in a humidified atmosphere of 5% CO2 at 37° C. After the HeLa cells had been incubated in a logarithmic growth phase, samples with various concentrations of Dox were added for 48 h of co-culturing. At the end of the experiment, the MTT assay was conducted and the percentage of cell viability was calculated. Additionally, material cytotoxicities were measured using HeLa cells (5×10^3 cell/mL). The experimental process was identical to that described above.
HeLa cells (5×10^3 cell/ml) were used to study the cytotoxicity of free Dox and Dox-loaded mixed micelle by measuring the inhibition of cell growth using a tetrazolium dye (MTT) assay.
The Dox-loaded multifunctional micelles and free Dox were tested for in vitro cytotoxicity using a tetrazolium dye (MTT) method. The MTT-based cytotoxic activities of the Dox-loaded multifunctional micelles and free DOX were compared after 24 h and 72 h incubation with HeLa cells.
In experiment [2] the test system is HepG2 (human hepatocellular carcinoma) cells. The experiment can be described thus: Internalization evaluation by confocal laser scanning microscopy with LysoTracker. It is filed as cell-based. To be noted: Dox ca. 10 μg/mL. Here is the method: Internalization Evaluation. Accumulated Dox in HepG2 cells was localized using a Carl Zeiss LSM5 PASCAL confocal laser scanning microscope (CLSM). The […] cells were seeded on coverslides for 24 h and then treated with free Dox or Dox-loaded mixed micelles. Dox-loaded mixed micelles were washed with PBS twice to remove untrapped Dox before use. The concentration of Dox was ca. 10 μg/mL. After an interval, the cells were washed twice with PBS; then, the LysoTracker was added in a culture medium without FBS. After 30 min of incubation, the cells were washed with PBS and mounted on a slide with 4 wt % paraformaldehyde for CLSM observation. Fluorescence observation was carried out with a confocal microscope at 488 nm for excitation and an LP (long-pass) filter of 590 nm for Dox detection. […]
Confocal laser scanning microscopy (CLSM) was used to observe the intracellular drug release of mixed micelles. Confocal images were taken to observe the time-dependent fluorescence intensity of LysoTracker and Dox after mixed micelles were incubated with HepG2 (human hepatocellular carcinoma) cells. The red fluorescence from Dox and the green fluorescence from LysoTracker were detected in the intracellular compartment. […] Fluorescence from LysoTracker occurred in both the nucleus and cytoplasm because these are acidified by doxorubicin hydrochloride. […]

Molecules are shown by their SMILES.

On to `COc1cccc2c1C(=O)c1c(O)c3c(c(O)c1C2=O)C[C@@](O)(C(=O)CO)C[C@@H]3O[C@H]1C[C@H](N)[C@H](O)[C@H](C)O1` [free Dox, doxorubicin], for which the “activity compared with Dox-loaded mixed micelles and Dox-loaded Graft I micelles” value in experiment [1] is listed as “more potent activity”. In addition, the “localization of Dox fluorescence” value in experiment [2] (1 h incubation) and in experiment [2] (8 h incubation) was “concentrated in the nucleus” in each case.
